Test results taken from patent US5030760A, “Tetrahydrophthalimides, and their production and use” (Sumitomo Chemical Company, Ltd., priority 1981, dated 1991).

How the values were obtained:
[1] = test system: tall morningglory; test: Test Example 2, field foliar treatment, herbicidal activity; format: in vivo, Ipomoea purpurea; settings: 3 weeks; also: ranges in brackets are in %
Experimental: (§1) The application of the tetrahydrophthalimides (I) as herbicides will be illustratively shown in the following Examples wherein the phytotoxicity to cultivated plants and the herbicidal activity on weeds were evaluated as follows: the aerial parts of the test plants were cut off and weighed (fresh weight); the percentage of the fresh weight of the treated plant to that of the untreated plant was calculated with the latter fresh weight taken as 100; and the crop damage and the herbicidal activity were evaluated by the standard given in the table below. The rating values of phytotoxicity, 0 and 1, and those of herbicidal effect, 5 and 4, are generally regarded as satisfactory to protect cultivated plants and control weeds, respectively. The rating values in the paddy field test alone were calculated from the dry weight of the test plants.
(§2) Seeds of corn and broad-leaved weeds such as cocklebur, common purslane and tall morningglory were sown in the field as previously laid up in ridges, each ridge having an upper width of 1 m. At the time when the corn grew up to the 6-leaf stage and the broad-leaved weeds up to 2 to 5-leaf stages, a designed amount of the test compound formulated into an emulsifiable concentrate according to Preparation Example 2 and dispersed in water was sprayed to the foliage of the test plants with three replications over the top by means of a small hand sprayer at a spray volume of 5 liters per are. After cultivation for 3 weeks, herbicidal activity and phytotoxicity were examined.

[2] = test system: barnyardgrass; test: Test Example 7, flooded paddy pot dripping, herbicidal activity; format: in vivo, Echinochloa crus-galli; settings: 3 weeks; also: ranges in brackets are in %
Experimental: as §1
(§3) Wagner's pots (1/5000 are) were filled with paddy field soil and water was poured therein to make a flooded condition. Rice seedlings of the 3-leaf stage were transplanted and tubers of slender spikerush and arrowhead and the seeds of barnyardgrass, monochoria and broad-leaved weed were sowed therein and grown for 5 days. When germination occurs, a designed amount of the test compound formulated into an emulsifiable concentrate according to Preparation Example 2 was applied to the pots by dripping. The test plants were grown for a further 3 weeks, and herbicidal activity and phytotoxicity were examined. The herbicidal activity was evaluated in figures ranging from 0 to 5. The phytotoxicity to the crop plants was also indicated on the same standard as that of the herbicidal activity.

[3] = test system: sicklepod; test: Test Example 3, soil surface spraying, herbicidal activity; format: in vivo, Cassia obtusifolia; settings: 20 days; also: ranges in brackets are in %
Experimental: as §1
(§4) Plastic trays (35 cm×25 cm×15 cm) were filled with upland field soil, and the seeds of tall morningglory, velvetleaf and sicklepod and the seeds of corn were sown therein. A designed amount of the test compounds formulated into a wettable powder according to Preparation Example 1 was dispersed in water and applied by spraying at a spray volume of 5 liters per are to the whole surface of the soil. After the spraying, the test plants were placed in a greenhouse and grown for 20 days, and herbicidal activity and phytotoxicity were examined.

[4] = test system: wild mustard; test: Test Example 1, foliar treatment, herbicidal activity; format: in vivo, Brassica kaber; settings: 3 weeks
How it was run: (§5)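 Crops and weeds sown in upland soil, greenhouse-grown 2 weeks, then sprayed on foliage with compound as emulsifiable concentrate in water plus spreading agent at 5 liters per are. Scored 3 weeks later from aerial fresh weight as percent of untreated plants, converted to a rating scale.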

[5] = test system: broad-leaved weed; test: Test Example 7, flooded paddy pot dripping, herbicidal activity; format: in vivo; settings: 3 weeks; also: ranges in brackets are in %
Experimental: as §1, §3

[6] = test system: rice plant; test: Test Example 7, flooded paddy pot dripping, phytotoxicity to rice plant; format: in vivo; settings: 3 weeks; also: ranges in brackets are in %
Experimental: as §1, §3

[7] = test system: sicklepod; test: Test Example 5, spraying over the top, herbicidal activity; format: in vivo, Cassia obtusifolia; settings: sprayed over the top, 20 days; also: ranges in brackets are in %
Experimental: as §1
(§6) Plastic trays (35 cm×25 cm×15 cm) were filled with upland field soil, and the seeds of tall morningglory, velvetleaf, jimsonweed, sicklepod, hemp sesbania, prickly side, Johnsongrass, green foxtail and large crabgrass and the seeds of soybean were sown therein. A designed amount of the test compound formulated into a wettable powder according to Preparation Example 1 and dispersed in water was sprayed over the top by means of a small hand sprayer at a spray volume of 5 liters per are. After the spraying, the test plants were grown in greenhouse for 20 days, and phytotoxicity and herbicidal activity were examined.

[8] = test system: corn; test: Test Example 1, foliar treatment, phytotoxicity to corn; format: in vivo; settings: 3 weeks; also: ranges in brackets are in %
How it was run: as §5

[9] = test system: velvetleaf; test: Test Example 5, spraying over the top, herbicidal activity; format: in vivo, Abutilon theophrasti; settings: sprayed over the top, 20 days; also: ranges in brackets are in %
Experimental: as §1, §6

[10] = test system: cocklebur; test: Test Example 2, field foliar treatment, herbicidal activity; format: in vivo, Xanthium pennsylvanicum; settings: 3 weeks; also: ranges in brackets are in %
Experimental: as §1, §2

[11] = test system: jimsonweed; test: Test Example 5, spraying over the top, herbicidal activity; format: in vivo, Datura stramonium; settings: sprayed over the top, 20 days; also: ranges in brackets are in %
Experimental: as §1, §6

[12] = test system: slender spikerush; test: Test Example 7, flooded paddy pot dripping, herbicidal activity; format: in vivo, Eleocharis acicularis; settings: 3 weeks; also: ranges in brackets are in %
Experimental: as §1, §3

[13] = test system: barnyardgrass; test: Test Example 1, foliar treatment, herbicidal activity; format: in vivo, Echinochloa crus-galli; settings: 3 weeks; also: ranges in brackets are in %
How it was run: as §5

[14] = test system: green foxtail; test: Test Example 4, pre-emergence treatment, herbicidal activity; format: in vivo, Setaria viridis; settings: 20 days; also: ranges in brackets are in %
How it was run: (§7)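 Values are rating scores from shoot fresh weight versus untreated plants, taken 20 days after a pre-emergence spray of an emulsifiable concentrate onto sown upland soil.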

[15] = test system: common purslane; test: Test Example 2, field foliar treatment, herbicidal activity; format: in vivo, Portulaca oleracea; settings: 3 weeks; also: ranges in brackets are in %
Experimental: as §1, §2

[16] = test system: corn; test: Test Example 3, soil surface spraying, phytotoxicity to corn; format: in vivo; settings: 20 days; also: ranges in brackets are in %
Experimental: as §1, §4

[17] = test system: morningglory; test: Test Example 4, pre-emergence treatment, herbicidal activity; format: in vivo; settings: 20 days; also: ranges in brackets are in %
How it was run: as §7

[18] = test system: monochoria; test: Test Example 7, flooded paddy pot dripping, herbicidal activity; format: in vivo, Monochoria vaginalis; settings: 3 weeks; also: ranges in brackets are in %
Experimental: as §1, §3

[19] = test system: velvetleaf; test: Test Example 3, soil surface spraying, herbicidal activity; format: in vivo, Abutilon theophrasti; settings: 20 days; also: ranges in brackets are in %
Experimental: as §1, §4

O=C1C2=C(CCCC2)C(=O)N1c1ccc(Cl)cc1F [A, 2-fluoro-4-chlorophenyltetrahydrophthalimide, reference compound]
Herbicidal activity, Tall morningglory ([1]; 0.63 g/are): 2 (21-40)
Herbicidal activity, Tall morningglory ([1]; 1.25 g/are): 2 (21-40)
Herbicidal activity, Barnyardgrass ([2]; 2.5 g/are): 1 (10-29)
Herbicidal activity, Barnyardgrass ([2]; 5 g/are): 3 (50-69)
Herbicidal activity, Barnyardgrass ([2]; 10 g/are): 4 (70-89)
Herbicidal activity, Sicklepod ([3]; 5 g/are): 0 (61-100)
Herbicidal activity, Sicklepod ([3]; 10 g/are): 1 (41-60)
Herbicidal activity, Wild mustard ([4]; 1.25 g/are): 3 (11-20)
Herbicidal activity, Wild mustard ([4]; 5 g/are): 5 (0)
Herbicidal activity, Broad-leaved weed ([5]; 2.5 g/are): 4 (70-89)
Herbicidal activity, Broad-leaved weed ([5]; 5 g/are): 5 (90-100)
Herbicidal activity, Broad-leaved weed ([5]; 10 g/are): 5 (90-100)
Phytotoxicity, Rice plant ([6]; 2.5 g/are): 1 (10-29)
Phytotoxicity, Rice plant ([6]; 5 g/are): 1 (10-29)
Phytotoxicity, Rice plant ([6]; 10 g/are): 2 (30-49)
Herbicidal activity, Sicklepod ([7]; 10 g/are): 1 (41-60)
Herbicidal activity, Sicklepod ([7]; 20 g/are): 2 (21-40)
Phytotoxicity, Corn ([8]; 1.25 g/are): 1 (90-99)
Phytotoxicity, Corn ([8]; 5 g/are): 2 (80-89)
Herbicidal activity, Velvetleaf ([9]; 10 g/are): 5 (0)
Herbicidal activity, Velvetleaf ([9]; 20 g/are): 5 (0)
Herbicidal activity, Cocklebur ([10]; 0.63 g/are): 1 (41-60)
Herbicidal activity, Cocklebur ([10]; 1.25 g/are): 4 (1-10)
Herbicidal activity, Jimsonweed ([11]; 10 g/are): 4 (1-10)
Herbicidal activity, Jimsonweed ([11]; 20 g/are): 5 (0)
Herbicidal activity, Slender spikerush ([12]; 2.5 g/are): 2 (30-49)
Herbicidal activity, Slender spikerush ([12]; 5 g/are): 3 (50-69)
Herbicidal activity, Slender spikerush ([12]; 10 g/are): 4 (70-89)
Herbicidal activity, Barnyardgrass ([13]; 1.25 g/are): 1 (41-60)
Herbicidal activity, Barnyardgrass ([13]; 5 g/are): 3 (11-20)
Herbicidal activity, Green foxtail ([14]; 2.5 g/are): 1 (41-60)
Herbicidal activity, Green foxtail ([14]; 10 g/are): 4 (1-10)
Herbicidal activity, Common purslane ([15]; 0.63 g/are): 2 (21-40)
Herbicidal activity, Common purslane ([15]; 1.25 g/are): 3 (11-20)
Phytotoxicity, Corn ([16]; 5 g/are): 2 (80-89)
Phytotoxicity, Corn ([16]; 10 g/are): 3 (60-79)
Herbicidal activity, Morningglory ([17]; 2.5 g/are): 1 (41-60)
Herbicidal activity, Morningglory ([17]; 10 g/are): 2 (21-40)
Herbicidal activity, Monochoria ([18]; 2.5 g/are): 4 (70-89)
Herbicidal activity, Monochoria ([18]; 5 g/are): 5 (90-100)
Herbicidal activity, Monochoria ([18]; 10 g/are): 5 (90-100)
Herbicidal activity, Velvetleaf ([19]; 5 g/are): 3 (11-20)
Herbicidal activity, Velvetleaf ([19]; 10 g/are): 4 (1-10)

CC(C)Oc1cc(N2C(=O)C3=C(CCCC3)C2=O)c(Cl)cc1Cl [B, 2,4-dichloro-5-isopropoxyphenyltetrahydrophthalimide, reference compound]
Herbicidal activity, Tall morningglory ([1]; 0.63 g/are): 3 (11-20)
Herbicidal activity, Tall morningglory ([1]; 1.25 g/are): 4 (1-10)
Herbicidal activity, Sicklepod ([3]; 5 g/are): 0 (61-100)
Herbicidal activity, Sicklepod ([3]; 10 g/are): 1 (41-60)
Herbicidal activity, Wild mustard ([4]; 1.25 g/are): 2 (21-40)
Herbicidal activity, Wild mustard ([4]; 5 g/are): 3 (11-20)
Herbicidal activity, Sicklepod ([7]; 10 g/are): 0 (61-100)
Herbicidal activity, Sicklepod ([7]; 20 g/are): 2 (21-40)
Phytotoxicity, Corn ([8]; 1.25 g/are): 0 (100)
Phytotoxicity, Corn ([8]; 5 g/are): 1 (90-99)
Herbicidal activity, Velvetleaf ([9]; 10 g/are): 4 (1-10)
Herbicidal activity, Velvetleaf ([9]; 20 g/are): 5 (0)
Herbicidal activity, Cocklebur ([10]; 0.63 g/are): 2 (21-40)
Herbicidal activity, Cocklebur ([10]; 1.25 g/are): 4 (1-10)
Herbicidal activity, Jimsonweed ([11]; 10 g/are): 4 (1-10)
Herbicidal activity, Jimsonweed ([11]; 20 g/are): 4 (1-10)
Herbicidal activity, Barnyardgrass ([13]; 1.25 g/are): 0 (61-100)
Herbicidal activity, Barnyardgrass ([13]; 5 g/are): 2 (21-40)
Herbicidal activity, Green foxtail ([14]; 5 g/are): 0 (61-100)
Herbicidal activity, Green foxtail ([14]; 20 g/are): 0 (61-100)
Herbicidal activity, Common purslane ([15]; 0.63 g/are): 3 (11-20)
Herbicidal activity, Common purslane ([15]; 1.25 g/are): 4 (1-10)
Phytotoxicity, Corn ([16]; 5 g/are): 0 (100)
Phytotoxicity, Corn ([16]; 10 g/are): 0 (100)
Herbicidal activity, Morningglory ([17]; 5 g/are): 0 (61-100)
Herbicidal activity, Morningglory ([17]; 20 g/are): 1 (41-60)
Herbicidal activity, Velvetleaf ([19]; 5 g/are): 1 (41-60)
Herbicidal activity, Velvetleaf ([19]; 10 g/are): 3 (11-20)
